# Measured values as given in patent US20210223233A1, “Mitochondrial Conductance Inhibitors and Methods of Use Thereof” (The Regents of the University of California, priority 2018, published 2021).
# Like-named read-outs stand apart in the source and are kept apart here.
# Tests used:
# [1] = test system: inner mitochondrial membrane nonselective monovalent cation conductance (NMCC); type: biochemical, mouse
# Protocol: The homogenate was centrifuged at 700 g for 5-10 min to pellet nuclei and unbroken cells. For some tissues, the first nuclear pellet was resuspended in the same solution and homogenized again to increase the yield of mitochondria. Mitochondria were collected by centrifugation of the supernatant at 8,500 g for 10 min. Mitochondria were suspended in a solution containing 140 mM sucrose, 440 mM D-mannitol, 5 mM HEPES, and 1 mM EGTA (pH adjusted to 7.2 with KOH), and then subjected to a French press at 2,000 psi to rupture the outer mitochondrial membrane (OMNI) and release the inner mitochondrial membrane (IMM) to form mitoplasts. Mitoplasts were pelleted at 10,500 g for 15 min and resuspended for storage in […] of solution containing 750 mM KCl, 100 mM HEPES and 1 mM EGTA (pH adjusted to 7.2 with KOH) to further release the IMM from the OMNI, see FIG. 1A. […] Mitochondria and mitoplasts were prepared at 0-4° C. and stored on ice for up to 5 h. Tissues were isolated from a mitochondrial calcium uniporter (MCU) knock-out mouse unless otherwise indicated.
# A glass pipette recording electrode was used to form a gigaohm seal with the IMM in a bath solution containing 150 mM KCl, 10 mM HEPES, and 1 mM EGTA, pH 7.2 (adjusted with KOH). Capacitive transients were completely compensated right after the seal was formed. The patch of the IMM attached to the glass pipette recording electrode was then ruptured by high-amplitude voltage pulses (200-500 mV).
# Currents were recorded using an Axopatch 200B amplifier (Molecular Devices). The current was dropped to −160 mV and then ramped up for 850 mS to +80 mV. All voltages indicated correspond to the mitochondrial matrix in respect to the bath (cytosol). Mitoplast conductance was normalized to the membrane capacitance (Cm) in all tissues examined. Current amplitudes for histograms were measured within 5 mS after stepping the membrane from 0 to −160 mV and were normalized to the total current. Whole-mitoplast control currents were recorded in a bath solution containing 150 mM HEPES, 1.5 mM EGTA, pH 7.0 adjusted with Tris base, osmolarity to 300 mmol/kg with sucrose.
# For the assay, the pipette solution contained 110 mM Na-gluconate, 5 mM EGTA, 40 mM HEPES, 5 mM EDTA, and 1 mM NaCl and was tonicity adjusted to ˜350-370 mmol/kg with sucrose and pH adjusted to pH 7 with 1 M NaOH. The control bath solution contained 110 mM Na-gluconate, and 40 mM HEPES and was pH adjusted to pH 7 with 1 M NaOH. When assaying for the effect Ca^2+, 5 mM CaCl2) was added to the described bath solution.
# For the DCCD assay, mitoplasts were prepared from wild-type C56BL/6 mice. The pipette solution contained 150 mM tetramethylammonium (TMA) hydroxide, 1.5 mM EGTA, 2 mM MgCl2, and 150 mM HEPES, was tonicity adjusted to ˜450 mmol/kg with sucrose and pH adjusted to pH 7 with D Gluconic Acid, and the bath solution contained 150 mM KCl, 1.5 mM EGTA, and 40 mM HEPES, and was pH adjusted to pH 7.2 with 1 M KOH. When assaying for DCCD effect, 10 μM DCCD was added to the described bath solution. […],
# When assaying for inhibitor effect, […] or 5 μM CATR was added to the described bath solution.
# For the Na^+ assays, the pipette solution contained 110 mM Na-gluconate, 5 mM EGTA, 40 mM HEPES, 5 mM EDTA, and 1 mM NaCl and was tonicity adjusted to ˜350-370 mmol/kg with sucrose and pH adjusted to pH 7 with 1 M NaOH. The bath solution contained 110 mM Na-gluconate, 5 mM EGTA, 40 mM HEPES, and 5 mM EDTA and was pH adjusted to pH 7 with 1 M NaOH.
# [2] = log octanol/water partition coefficient; source not stated; cited from earlier work
# [3] = 10 μM antimycin in bath, 125 mM K-gluconate, pH 7
molecule,measurement,setting,value
"N/C(=N\C(=O)c1nc(Cl)c(NCc2ccc(I)cc2)nc1N)NCCCCc1ccccc1 [5m, (E)-3-amino-N-(amino((4-phenylbutyl)amino)methylene)-6-chloro-5-((4-iodobenzyl)amino)pyrazine-2-carboxamide]",effect on monovalent cation conductance,"[1]; 1 μM 5m in bath, 125 mM K-gluconate, pH 7",almost completely inhibited
"CCCCCCCCN/C(N)=N/C(=O)c1nc(Cl)c(NCc2ccc(I)cc2)nc1N [5o, (E)-3-amino-N-(amino(octylamino)methylene)-6-chloro-5-((4-iodobenzyl)amino)pyrazine-2-carboxamide]",effect on monovalent cation conductance,"[1]; 1 μM 5o in bath, 125 mM K-gluconate, pH 7",almost completely inhibited
"CN(CCCCCCc1ccccc1)CCCCNC(=O)c1nc(Cl)c(NCc2ccc(Cl)cc2)nc1N [AA6, 3-amino-6-chloro-5-((4-chlorobenzyl)amino)-N-(4-(methyl(6-phenylhexyl)amino)butyl)pyrazine-2-carboxamide]",effect on monovalent cation conductance,"[1]; 200 nM AA6 in bath, 125 mM K-gluconate, pH 7",almost completely inhibited
"CCCCC/C=C\C/C=C\C/C=C\C/C=C\CCCC(=O)O [AA, arachidonic acid]",effect on monovalent cation conductance,"[1]; […] AA in bath, 125 mM K-gluconate, pH 7",little to no effect
"C=C1[C@@H]2CC[C@H]3[C@]4(C)C[C@H](O[C@@H]5O[C@H](CO)[C@@H](OS(=O)(=O)O)[C@H](OS(=O)(=O)O)[C@H]5OC(=O)CC(C)C)CC(C(=O)O)(C(=O)O)[C@H]4CC[C@]3(C2)[C@H]1O [CATR, carboxyatractyloside]",effect on monovalent cation conductance,"[1]; 5 μM CATR in bath, 125 mM K-gluconate, pH 7",little to no effect
"[Ca+2].[Cl-].[Cl-] [Ca^2+, CaCl2]",effect on monovalent cation conductance,"[1]; 5 mM CaCl2 added to bath, 110 mM Na-gluconate, no chelator in bath, pH 7",inhibited
"C(=NC1CCCCC1)=NC1CCCCC1 [DCCD, dicyclohexylcarbodiimide]",effect on monovalent cation conductance,"[1]; 10 μM DCCD in bath, 150 mM KCl bath, TMA pipette, mitoplasts from wild-type C56BL/6 mice",little to no effect
"CCN(c1nc(N)c(C(=O)NC(=N)N)nc1Cl)C(C)C [EIPA, 5-(N-ethyl-N-isopropyl)amiloride]",Concentration,[1],80 µM
same,effect on monovalent cation conductance,"[1]; K+ assay (110 mM K-gluconate, pH 7), 80 μM EIPA in bath",significantly and almost completely inhibited
same,effect on monovalent cation conductance,"[1]; Na+ assay (110 mM Na-gluconate, pH 7), 100 μM EIPA in bath",significantly and almost completely inhibited
"C[n+]1ccc(-c2ccccc2)cc1 [MPP+, 1-methyl-4-phenylpyridinium]",effect on monovalent cation conductance,"[1]; 0.5 mM MPP+ in bath, 125 mM K-gluconate, pH 7",little to no effect
CN(C)C(=N)NC(=N)N [Metformin],Concentration,[1],30000 µM
same,effect on monovalent cation conductance,[1]; pH 7,almost completely inhibited
[H]/N=C(/N)N/C(=N/[H])NCCc1ccccc1 [Phenformin],Concentration,[1],2000 µM
same,effect on monovalent cation conductance,"[1]; 1 mM phenformin in bath, 125 mM K-gluconate, pH 7",almost completely inhibited
same,logP,[2],−0.83
[H]/N=C(\N/C(=N/[H])Nc1ccc(Cl)cc1)NC(C)C [Proguanil],Concentration,[1],100 µM
same,effect on monovalent cation conductance,"[1]; 100 μM proguanil in bath, 125 mM K-gluconate, pH 7",almost completely inhibited
same,logP,[2],2.53
"C=C(C)[C@H]1Cc2c(ccc3c2O[C@@H]2COc4cc(OC)c(OC)cc4[C@@H]2C3=O)O1 [Rotenone, rotenone]",effect on monovalent cation conductance,"[1]; 10 μM rotenone in bath, 110 mM Na-gluconate, pH 7",little to no effect
N/C(=N\C(=O)c1nc(Cl)c(N)nc1N)NCc1ccccc1 [benzamil],effect on monovalent cation conductance,"[1]; 10 μM benzamil in bath, 125 mM K-gluconate, pH 8",little to no effect
CC(C)(C)c1ccc(CCOc2ncnc3ccccc23)cc1 [fenazaquin],effect on monovalent cation conductance,"[1]; 10 μM fenazaquin in bath, 110 mM Na-gluconate, pH 7",little to no effect
Cc1nn(C)c(Oc2ccccc2)c1/C=N/OCc1ccc(C(=O)OC(C)(C)C)cc1 [fenipiroximate],effect on monovalent cation conductance,"[1]; 0.5 μM fenipiroximate in bath, 125 mM K-gluconate, pH 7",little to no effect
CO/C(=C/C(N)=O)[C@H](C)[C@H](/C=C/c1csc(-c2csc([C@@H](C)/C=C/C=C/C(C)C)n2)n1)OC [myxothiazol],effect on monovalent cation conductance,"[1]; 10 μM myxothiazol in bath, 125 mM K-gluconate, pH 7",little to no effect
CC[C@H]1/C=C/C=C/C[C@@H](C)[C@H](O)[C@@](C)(O)C(=O)[C@@H](C)[C@H](O)[C@@H](C)C(=O)[C@@H](C)[C@H](O)[C@@H](C)/C=C/C(=O)O[C@@H]2[C@H](C)[C@H](CC1)O[C@]1(CC[C@H](C)[C@H](C[C@@H](C)O)O1)[C@H]2C [oligomycin],effect on monovalent cation conductance,"[1]; 10 oligomycin (unit not given) in bath, 125 mM K-gluconate, pH 7",little to no effect
C/C=C(\C)[C@H](O)[C@H](C)/C=C(C)/C=C/C/C(C)=C/Cc1nc(OC)c(OC)c(O)c1C [piericidin],effect on monovalent cation conductance,"[1]; 1 μM piericidin in bath, 110 mM K-gluconate, pH 7",little to no effect
CCCCCCCCCCC(O)C1CCC(C2CCC(C(O)CCCCCCCCCCC(O)CC3=CC(C)OC3=O)O2)O1 (stereo not drawn) [rolliniastatin],effect on monovalent cation conductance,"[1]; 2 μM rolliniastatin in bath, 125 mM K-gluconate, pH 7",little to no effect
C/C=C(C)/C=C/C=C/[C@H](OC)[C@@H](C)[C@@H](OC)[C@@H](C)CCc1oc2c(O)c(OC)cc(OC)c2c(=O)c1C [stigmatellin],effect on monovalent cation conductance,"[1]; 0.5 μM stigmatellin in bath, 125 mM K-gluconate, pH 7",little to no effect
Tertiapin Q [TQ],effect on monovalent cation conductance,"[1]; 0.5 μM TQ in bath, 125 mM K-gluconate, pH 7",little to no effect
antimycin,effect on monovalent cation conductance,[1]; [3],little to no effect
same,uncoupling H+ current overlapping with the K+ current,[1]; [3],elicited an uncoupling H^+ current
atpenin,effect on monovalent cation conductance,"[1]; 0.2 μM or 1 μM atpenin in bath, 125 mM K-gluconate, pH 7",little to no effect
bullatacin,effect on monovalent cation conductance,"[1]; 1 μM bullatacin in bath, 125 mM K-gluconate, pH 7",little to no effect
